Assay results reported in PubChem BioAssay (NCI).
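Exposure lasted 48 hours, with cells grown in 96-well plates and compounds tested at five concentrations. Here, GI50 denotes the concentration required for 50% inhibition of growth. TGI: concentration producing complete growth inhibition.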

Tests used:
Test in all cases: NCI tumour cell line growth inhibition, 48 h
[1] = system: HCC-2998 colon
[2] = system: K-562 leukemia
[3] = system: OVCAR-4 ovarian
[4] = system: KM12 colon
[5] = system: T-47D breast
[6] = system: SNB-75 CNS
[7] = system: CAKI-1 renal
[8] = system: 786-0 renal
[9] = system: SK-OV-3 ovarian
[10] = system: CCRF-CEM leukemia
[11] = system: RXF 393 renal
[12] = system: SW-620 colon
[13] = system: NCI-H23 lung
[14] = system: OVCAR-5 ovarian
[15] = system: SK-MEL-28 melanoma
[16] = system: MDA-MB-231 breast
[17] = system: SK-MEL-5 melanoma
[18] = system: A498 renal
[19] = system: HCT-116 colon
[20] = system: OVCAR-8 ovarian
[21] = system: SF-539 CNS
[22] = system: LOX IMVI melanoma
[23] = system: M14 melanoma
[24] = system: UACC-62 melanoma
[25] = system: COLO 205 colon
[26] = system: HT29 colon
[27] = system: RPMI-8226 leukemia
[28] = system: UO-31 renal
[29] = system: MALME-3M melanoma
[30] = system: SR leukemia
[31] = system: MCF7 breast
[32] = system: EKVX NSCLC
[33] = system: U251 CNS
[34] = system: NCI-H226 lung
[35] = system: SF-268 CNS
[36] = system: NCI-H460 lung
[37] = system: SN12C renal
[38] = system: SF-295 CNS
[39] = system: HOP-62 NSCLC
[40] = system: HOP-92 NSCLC
[41] = system: HS 578T breast
[42] = system: TK-10 renal
[43] = system: HL-60(TB) leukemia
[44] = system: BT-549 breast
[45] = system: DU-145 prostate
[46] = system: HCT-15 colon
[47] = system: A549 NSCLC
[48] = system: SK-MEL-2 melanoma
[49] = system: MDA-MB-435
[50] = system: NCI-H522 lung
[51] = system: PC-3 prostate
[52] = system: MOLT-4 leukemia
[53] = system: UACC-257 melanoma
[54] = system: OVCAR-3 ovarian
[55] = system: SNB-19 CNS
[56] = system: IGROV1 ovarian
[57] = system: NCI/ADR-RES ovarian
[58] = system: ACHN renal

CC(C)(C(=O)NCC(F)(F)C(F)(F)F)C(=O)N[C@@H]1C(=O)Nc2ccccc2-c2ccccc21
GI50 [1]: 40.6 µM | TGI [1]: > 100 µM | GI50 [2]: > 67.3 µM | TGI [2]: > 100 µM | GI50 [3]: 34.1 µM | TGI [3]: > 100 µM | GI50 [4]: 73.3 µM | TGI [4]: > 100 µM | GI50 [5]: 23.7 µM | TGI [5]: 99 µM | GI50 [6]: 21.6 µM | TGI [6]: > 100 µM | GI50 [7]: 45.4 µM | TGI [7]: > 100 µM | GI50 [8]: > 64.3 µM | TGI [8]: > 100 µM | GI50 [9]: 99 µM | TGI [9]: > 100 µM | GI50 [10]: 45.3 µM | TGI [10]: > 100 µM | GI50 [11]: 20 µM | TGI [11]: > 78.7 µM | GI50 [12]: > 70.2 µM | TGI [12]: > 100 µM | GI50 [13]: > 67 µM | TGI [13]: > 100 µM | GI50 [14]: 97 µM | TGI [14]: > 100 µM | GI50 [15]: 42 µM | TGI [15]: > 100 µM | GI50 [16]: 44 µM | TGI [16]: > 100 µM | GI50 [17]: 16 µM | TGI [17]: 37.5 µM | GI50 [18]: 50.3 µM | TGI [18]: > 100 µM | GI50 [19]: 46.1 µM | TGI [19]: > 100 µM | GI50 [20]: 55.6 µM | TGI [20]: > 100 µM | GI50 [21]: > 84.8 µM | TGI [21]: > 100 µM | GI50 [22]: > 59.2 µM | TGI [22]: > 100 µM | GI50 [23]: 38.8 µM | TGI [23]: > 100 µM | GI50 [24]: 29.2 µM | TGI [24]: > 100 µM | GI50 [25]: 34 µM | TGI [25]: > 100 µM | GI50 [26]: 39.7 µM | TGI [26]: > 100 µM | GI50 [27]: 54.5 µM | TGI [27]: > 100 µM | GI50 [28]: 32.3 µM | TGI [28]: > 100 µM | GI50 [29]: > 61.9 µM | TGI [29]: > 100 µM | GI50 [30]: 35.5 µM | TGI [30]: 99 µM | GI50 [31]: 27.3 µM | TGI [31]: > 100 µM | GI50 [32]: 52.7 µM | TGI [32]: > 100 µM | GI50 [33]: > 78.5 µM | TGI [33]: > 100 µM | GI50 [34]: 30.1 µM | TGI [34]: > 100 µM | GI50 [35]: 67.5 µM | TGI [35]: > 100 µM | GI50 [36]: 52.4 µM | TGI [36]: > 100 µM | GI50 [37]: > 85 µM | TGI [37]: > 100 µM | GI50 [38]: 43.7 µM | TGI [38]: > 100 µM | GI50 [39]: > 93.4 µM | TGI [39]: > 100 µM | GI50 [40]: 39.2 µM | TGI [40]: > 100 µM | GI50 [41]: > 56 µM | TGI [41]: > 100 µM | GI50 [42]: > 100 µM | TGI [42]: > 100 µM | GI50 [43]: 37.5 µM | TGI [43]: > 100 µM | GI50 [44]: 36.3 µM | TGI [44]: > 100 µM | GI50 [45]: > 87.2 µM | TGI [45]: > 100 µM | GI50 [46]: 51.3 µM | TGI [46]: > 100 µM | GI50 [47]: 51.9 µM | TGI [47]: > 100 µM | GI50 [48]: > 57.2 µM | TGI [48]: > 100 µM | GI50 [49]: > 63.7 µM | TGI [49]: > 100 µM | GI50 [50]: 65.1 µM | TGI [50]: > 100 µM | GI50 [51]: 50.8 µM | TGI [51]: > 100 µM | GI50 [52]: 40.3 µM | TGI [52]: > 100 µM | GI50 [53]: 47.3 µM | TGI [53]: > 100 µM | GI50 [54]: 68.8 µM | TGI [54]: > 100 µM | GI50 [55]: 62.3 µM | TGI [55]: > 100 µM | GI50 [56]: > 71.6 µM | TGI [56]: > 100 µM | GI50 [57]: 42.4 µM | TGI [57]: > 100 µM | GI50 [58]: 50.4 µM | TGI [58]: > 100 µM
